US8236985B2, “Compounds and uses thereof” (Imperial Innovations Ltd., priority 2006, dated 2012)
Read-outs that look alike come from different tables or passages of the source.

Tests used:
MCF-7 cells = assay: Sulforhodamine B (SRB) cell growth inhibition assay; format: cell-based, human; details: N=5-6
Description: Stock cultures of MCF-7 and MDA-MB-231 human breast cancer cell lines (American Type Culture Collection, Rockville, Md.) are grown in Dulbecco's Modified Eagle's Medium (DMEM) containing 10% (v/v) foetal calf serum, 2 mM L-glutamine, 100 units/ml penicillin and 100 μg/ml streptomycin at 37° C. in 5% CO2 humidified atmosphere. Cells are counted in a haemocytometer after detachment using 0.25% (w/v) trypsin in Dulbecco's Phosphate Buffered Saline without Ca^2+ or Mg^2+ (DPBS) (Sigma-Aldrich, Gillingham, UK) containing 0.02% (w/v) EDTA. Viability is determined by Trypan blue exclusion. For each cell line, cells are seeded in 96-well microtitre plates at optimal densities determined in prior experiments to ensure exponential growth for the duration of the assay. […] After 48 hour incubation, cell proliferation is determined using the sulforhodamine B colorimetric assay described by Skehan et al. (1990) J. Natl. Cancer Inst. 82, 1107-1112. Briefly, 100 μl of ice cold 40% (w/v) trichloroacetic acid is added to each well and incubated for 1 hour at 4° C. The plate is then rinsed gently with five changes of tap water. To each well is then added 100 μl of 0.4% (w/v) sulforhodamine B in 1% (v/v) acetic acid and incubated for 1 hour at room temperature. The plate is then washed five times with 1% (v/v) acetic acid and allowed to air dry overnight. Bound dye is then solubilised by addition of 100 μl of 10 mM Tris base to each well followed by incubation on a vibrating plate shaker for 30 minutes. Absorbance at 492 nm is then measured on a microtitre plate reader and the results expressed as the mean ±SE for 6 replicates as a % of vehicle control (taken as 100%). The concentration of each compound of the invention that inhibits cell proliferation by 50% (IC50) is determined graphically in each case using non-linear regression analysis to fit inhibition data to the appropriate dose-response curve (GraphPad Prism Version 4.0; GraphPad Software Inc., San Diego, Calif.).
Trichostatin A (TSA) was used as control.

[1] = system: HDAC (HeLa nuclear extract); assay: Fluorometric HDAC inhibition assay using the Fluor de Lys assay kit; format: biochemical, human
Description: Histone deacetylase inhibition by compounds of the invention is assayed by a commercial fluorescent assay kit (BIOMOL—AK-500). 10 mM stock solutions of compounds of the invention prepared in DMSO are aliquoted and frozen at −20° C. For each assay, a vial of the drug solution is thawed to prepare dilutions of drug in DMSO; the remaining drug is discarded. Working solutions of the assay reagents are prepared according to the manufacturers instructions. For the assay, 10 μl of ×5 concentrations of drug (in triplicate) or HDAC assay buffer is added to 15 μl of dilute HeLa nuclear extract (BIOMOL; D1409) and 25 μl of (2×) Fluor-de-Lys substrate in a micro titre plate (Perkin Elmer # 6005270, Optiplate-96 Black microplate) and thoroughly mixed. […] The reactions are allowed to proceed for 10 min and then stopped by addition of 50 μl of dilute Fluor-de-Lys developer solution. The reaction mixtures are then incubated at room temperature for 15 min and fluorescence is read on a Victor multi-well Fluorescence plate reader at an excitation wavelength of 355 nm and emission wavelength of 460 nm.
To obtain a calibration curve, 50 μl aliquots of deacetylated standards prepared in HDAC assay buffer according to the manufacturer's instructions are mixed with 50 μl of diluted Fluor-de-Lys developer solution and incubated for 10 min at room temperature. The fluorescence is measured as above. A plot of arbitrary fluorescence units (AFU) against deacetylated standard concentration in μM is made. The slope and intercept are determined and used for conversion of inhibitor data AFU into velocity of reaction (V, μM/min). To obtain half-maximal inhibition (EC50), molar concentrations of drug are plotted against V and the EC50 is determined from the sigmoid dose response using the GraphPad Prism software.

HDAC [2] = details: HPLC fractions tested in vitro; cited from earlier work
HDAC [3] = details: background statement; cited from earlier work
[4] = Intraperitoneal pharmacokinetic studies in vivo; set-up: species or system mouse; details: for Number of UV metabolites: 80 mg/kg i.p.
Description: Parent compound and phase I metabolites were separated by HPLC and detected with simultaneous UV and positive ion electrospray mass spectrometry. Metabolites were identified by positive ion electrospray tandem mass spectrometry.
C1-A was introduced at 80 mg/kg in DMSO (0.0015 ml/g; 30 μl) intraperitoneally into the mouse.

[5] = system: MCF7 and MDA-MB-435 human mammary tumour xenografts; assay: Human mammary tumour xenografts in immunodeficient mice; format: in vivo, mouse; details: 20-40 mg/kg/day i.p. for 2 weeks
[6] = cited from earlier work
[7] = system: N-methyl-N-nitrosourea carcinogen-induced rat mammary cancer; details: 500 μg/kg/day s.c. for 4 weeks; cited from earlier work
[8] = system: HCT116 human colon cancer cells; assay: Efficacy in vivo, HCT116 tumour-bearing mice; set-up: species or system mouse; details: 80 mg/ml i.p. daily for 7 days, n=1; for Efficacy in vivo (tumour volume vs vehicle control): HCT116 s.c. tumours
Description: The study was carried out at n=1 each for drug- or vehicle-treated mice. HCT116 human colon cancer cells were injected subcutaneously into the back of mice to form tumours.
When the tumours were about ˜125 mm^3, the mice were injected with C1-A at 80 mg/ml or vehicle (10% DMSO, 5% Tween 20 and 85% saline) intraperitoneally daily for 7 days. Tumour sizes were measured every 1-2 days in 3 orthogonal axes by callipers to determine tumour volume.

[9] = Pharmacokinetic studies in vivo after intravenous injection; set-up: species or system mouse; details: 80 mg/kg i.v.
Description: C1-A at 80 mg/kg in 10% DMSO, 5% Tween 20 and 85% saline was injected i.v. into the mouse. Plasma samples were deproteinated with two volume equivalents of methanol, then 200 μl was analysed by reversed-phase high pressure liquid chromatography (5 μm C18 column and 10 mM ammonium acetate/acetonitrile gradient) with ultraviolet detection at a wavelength of 351 nm. C1-A was detectable in plasma up to 60 min after i.v. injection.

[10] = system: Histone H4 acetylation, pRb and Cyclin D1 in MCF-7 cells; assay: Western blots of acetyl-H4, pRb and cyclin D1; format: cell-based, human; details: MCF-7 cells treated 24 h; western blot (FIG. 13)
Description: MCF-7 cells were treated with drug or vehicle (equivalent concentration of DMSO in growth media) for 24 h. Cells were harvested and homogenised. The respective proteins (acetyl-H4, pRb and cyclin D1) in supernatants of these homogenates were visualised by western blot analysis as previously described (Leyton J. et al., Cancer Res. (2006) 66(15): 7621-9).

[11] = first of two independent assay sets, N=3, read-out: Average EC50
[12] = second of two independent assay sets, N=3, read-out: Average EC50
[13] = MCF-7 cells, first of two independent assays
[14] = MCF-7 cells, second of two independent assays

**Q.** Which EC50 (MCF-7 cells; Homo sapiens, MCF7, MCF-7 cells, first of two independent assays) does the source give for `CCN(CC)c1ccc(S(=O)(=O)Nc2ccc(/C=C(C)/C=C/C(=O)NO)cc2)cc1` [Example C1-B, (E,E)-4-methyl-5-{4-[4-(diethylamino)phenyl]sulfonamido}penta-2,4-dienoic acid N-hydroxyamide] here?
**A.** 6000 nM

**Q.** What about the EC50 (MCF-7 cells; Homo sapiens, MCF7, MCF-7 cells, second of two independent assays) of the same molecule?
**A.** 14000 nM

**Q.** And the EC50 [1, 11]?
**A.** 320 nM

**Q.** What about the EC50 [1, 12] of the same molecule?
**A.** 450 nM

**Q.** For `CNc1ccc(C(=O)C(C)C=C(C)C=CC(=O)NO)cc1` (centres unmarked) [N-demethylated TSA metabolite, N-demethylated TSA], which “HDAC inhibitory potency relative to TSA” value (HDAC [2]) is on record?
**A.** equipotent

**Q.** Which “Concentrations at which HDAC is inhibited” value (HDAC [3]) does the source give for `CC(/C=C/C(=O)NO)=C\[C@@H](C)C(=O)c1ccc(N(C)C)cc1` [TSA, Trichostatin A] here?
**A.** low nanomolar

**Q.** What about the EC50 (MCF-7 cells; [13]) of the same molecule?
**A.** 75 nM

**Q.** What about the EC50 (MCF-7 cells; [14]) of the same molecule?
**A.** 110 nM

**Q.** What about the “Number of UV metabolites” value ([4]; mice, at 20 minutes (FIG. 17 and Sanderson et al, 2004)) of the same molecule?
**A.** 17

**Q.** And the Metabolism in vivo ([4]; FIG. 17)?
**A.** rapidly metabolised in vivo

**Q.** What about the Anti-tumour activity [5] of the same molecule?
**A.** anti-tumour activity

**Q.** What about the “Number of UV metabolites” value ([6]; TSA, at 20 minutes (Sanderson et al, 2004), quoted in Example 10) of the same molecule?
**A.** 17

**Q.** What about the Parent drug remaining ([6]; TSA, at 20 minutes (Sanderson et al, 2004)) of the same molecule?
**A.** almost no parent drug

**Q.** What about the Cmax ([6]; plasma, 80 mg/kg i.p., mice) of the same molecule?
**A.** 40000 ng/mL

**Q.** What about the Half-life ([6]; plasma, 80 mg/kg i.p., mice) of the same molecule?
**A.** 6.3 min

**Q.** And the Anti-tumour activity [7]?
**A.** potent anti-tumour activity

**Q.** What about the Toxicity in vivo [7] of the same molecule?
**A.** without significant toxicity

**Q.** Which EC50 (MCF-7 cells; [13]) does the source give for “(E,E)-4-methyl-5-{4-[4-bis-(2-chloroethylamino)phenyl]-sulfonamido}penta-2,4-dienoic acid N-hydroxyamide [Example C1-A]” here?
**A.** 3900 nM

**Q.** And the EC50 (MCF-7 cells; [14])?
**A.** 6800 nM

**Q.** And the Stability in vivo ([4]; 80 mg/kg i.p. in DMSO, mouse, HPLC-UV (FIG. 16))?
**A.** stable in vivo

**Q.** What about the “Number of UV metabolites” value ([4]; mouse, at 60 minutes) of the same molecule?
**A.** 5

**Q.** And the EC50 [1, 11]?
**A.** 590 nM

**Q.** What about the EC50 [1, 12] of the same molecule?
**A.** 310 nM

**Q.** And the “Toxicity based on measurement of body weight” value [8]?
**A.** no toxicity was detectable

**Q.** What about the “Efficacy in vivo (tumour volume vs vehicle control)” value [8] of the same molecule?
**A.** Tumour volume was greater in the control than in the C1-A-treated mouse

**Q.** What about the “Efficacy in vivo (tumour volume vs vehicle control)” value ([8]; listed as C1A) of the same molecule?
**A.** efficacious in vivo

**Q.** What about the Stability in vivo ([9]; Balb/c mice (FIG. 14)) of the same molecule?
**A.** stable in vivo

**Q.** What about the Detection in liver ([9]; mouse) of the same molecule?
**A.** detectable in the liver at all time points

**Q.** What about the “Time up to which compound was detectable in plasma” value ([9]; mouse, HPLC-UV) of the same molecule?
**A.** up to 60 min

**Q.** And the “Concentration at which pRb & cyclin D are inhibited and H4 hyperacetylation is induced, relative to TSA” value [10]?
**A.** ≥ 10 × [TSA]

**Q.** With Depudecin [reference compound] as the molecule, how does the “Concentrations at which HDAC is inhibited” value (HDAC [3]) read?
**A.** micromolar

**Q.** And the EC50 ([1]; control, read-out: EC50)?
**A.** > 10000 nM
